Source: patent US20220205982A1 (CHILDREN'S HOSPITAL MEDICAL CENTER, priority 2019, published 2022)

How the values were obtained:
[1] = cited from earlier work
[2] = Clinical outcome and toxicity after melphalan full dose in RIC allogeneic HCT (engraftment, chimerism, mucositis, VOD, GVHD); format: in vivo, human
Experimental: Patients undergoing allogeneic HCT for non-malignant disorders with a uniform RIC regimen that included alemtuzumab, fludarabine and melphalan were enrolled in this study. Full standard dose of melphalan was set as follows: • 140 mg/m^2 in patients having a body weight >10 kg, • 4.7 mg/kg in patients having a body weight <10 kg, and • 70 mg/m^2 in one patient with a radio sensitivity disorder.
Blood samples were obtained for PK measurement after the administration of test dose and the full standard dose of melphalan. A total of 10 blood samples were obtained around each dose of melphalan: at baseline (5-10 min prior to start of the melphalan infusion of) and then approximately at 5 min, 15 min, 30 min, 45 min, 60 min, 2 hour, 2.5, 4, and 6 hours after the end of the melphalan infusion. Samples were collected on ice and transported to the institution's mass spectrometry laboratory for instant analysis by PS-MS/MS and conventional LC-MS/MS. Patient data collected for analysis included baseline organ function, presence of oral and gastrointestinal mucositis, renal and liver dysfunction including VOD, initial donor chimerism, graft rejection, and acute and chronic GVHD (aGVHD and cGVHD). The Common Terminology Criteria for Adverse Events (CTCAE) version 4.0 was used to evaluate adverse events. Acute and chronic GVHD were assessed by standardized published criteria. See, e.g., Glucksberg H, et al. Transplantation. 1974; 18:295-304 and Filipovich A H, et al. Biol Blood Marrow Transplant. 2005; 11:945-956. Interim analyses were completed after enrollment of 5 patients and 10 patients respectively to validate data following 25% and 50% of intended total patient enrollment. The AUC range that led to full donor chimerism without excess toxicity in majority of patients was selected to be the desired target AUC for full dose adjustment. In patients with baseline impaired organ function, personalized full dose melphalan was adjusted to limit toxicity if test dose PK predicted standard full dose AUC was higher than the desired target AUC range.

[3] = five patients, adjusted full dose
[4] = sixth patient, initial HCT, full dose 0.44 mg/kg
[5] = sixth patient, second HCT, full dose 1.2 mg/kg

N[C@@H](Cc1ccc(N(CCCl)CCCl)cc1)C(=O)O [melphalan, 4-[Bis(2-chloroethyl)amino]-L-phenylalanine]
inter-patient variability in melphalan exposure ([1]; adults undergoing autologous HCT for multiple myeloma): up to 5 fold | contribution of renal elimination to melphalan clearance ([1]; in vivo): low | penetration into cerebrospinal fluid (CSF) ([1]; in vivo): low | steady-state volume of distribution ([1]; in vivo): about 0.5 L/kg | donor chimerism at engraftment [2, 3]: ≥ 99% | patients who developed VOD [2, 3]: None | patients with grade 3 mucositis [2, 3]: all 5 | patients who developed GVHD ([2]; four patients): 15% | patients who developed grade 1 acute GVHD of skin ([2]; human, in vivo): Two | patients who developed limited chronic GVHD ([2]; human, in vivo): two | VOD of the liver or other excessive toxicity [2, 4]: did not develop VOD of the liver or other excessive toxicity | graft outcome [2, 4]: developed secondary graft failure | whole blood donor chimerism [2, 4]: 79% | VOD of the liver or other excessive toxicity [2, 5]: without developing VOD of the liver or other excessive toxicity | donor chimerism [2, 5]: 100% | patients who developed VOD of the liver ([2]; standard dose melphalan): Two | patients who developed grade 1 mucositis ([2]; standard dose melphalan): one | patients who developed grade 2 mucositis ([2]; standard dose melphalan): 5 patients | patients who developed grade 3 mucositis ([2]; standard dose melphalan): Ten | patients who developed grade 4 mucositis ([2]; standard dose melphalan): one | patients who developed primary graft failure ([2]; standard dose melphalan): None | donor chimerism at engraftment ([2]; standard dose melphalan, all patients): > 95%
